Results on seven compounds are retold here after patent US12133855B2, “Lipid-like nanocomplexes and uses thereof” (Trustees of Tufts College, priority 2018, dated 2024).

Format in all cases: cell-based
For experiment [1], the system named is HeLa cells. Description: Internalization of Nile red loaded nanoparticles (NR+ cells). The note with it: 8 h of exposure. As for the experimental part: The internalization kinetics and efficiencies of OCholB LNPs were then studied using NR loaded LNPs and HeLa cells. […] Next, all of the NR delivery efficiencies of eight OCholB LNPs were determined after 8 h of exposure. […] Representative fluorescent images of NR/LNPs (NR/75-OCholB, NR/76-OCholB and NR/77-OCholB) treated HeLa cells are shown in FIG. 12D, from which it is easily observed that NR was delivered into the cells and mainly distributed in cytoplasm, by OCholB LNPs. Next, the internalization of negatively charged hydrophilic fluorescent dye, calcein, was studied. […] Next, the use of OCholB LNPs for the intracellular delivery of macromolecular cargo was explored, using fluorescent recombinant (−30)GFP-Cre protein and HeLa-DsRed cells as the model system. […] Delivery efficiency was tested at a range of (−30)GFP-Cre protein concentrations (25, 50 and 100 nM), with a consistent lipid/protein ratio (i.e., delivery with the final lipid concentration of 1.7, 3.3, and 6.6 μg mL^−1 respectively). 33.2%, 43.8% and 74% of GFP positive (GFP^+) cells were recorded for (−30)GFP-Cre/Lpf2k treated cells with the concentration of (−30)GFP-Cre 25 nM, 50 nM and 100 nM, respectively. […] The typical flow cytometry profiles of naked (−30)GFP-Cre protein and (−30)GFP-Cre loaded nanoparticles ((−30)GFP-Cre/75-OCholB, (−30)GFP-Cre/76-OCholB, (−30)GFP-Cre/77-OCholB and (−30)GFP-Cre/Lpf2k) treated HeLa-DsRed cells were shown in and FIG. 12H ([lipidoid]=6.6 μg mL^−1 and [(−30)GFP-Cre]=100 nM), which is consistent with the statistical results shown in FIG. 12G. Furthermore, the representative fluorescent images from the protein and protein/nanoparticle treated HeLa-DsRed cells are also shown in FIG. 12I.

Experiment [2] has as its system HeLa cells. In words: GFP mRNA delivery (GFP+ cells). As to conditions: LNP/mRNA=10/1; [mRNA]=0.86 μg mL^−1; 24 h exposure. From the text:
Messenger RNA delivery has great potentials for cancer therapy, protein replacement therapy and neurological disorder treatments.^42 The intracellular delivery of mRNA using OCholB LNPs was studied using GFP mRNA and different cell lines (HeLa, B16F10, HEK-293, NIH/3T3 and Jurkat). The weight ratio of LNP/mRNA was optimized at first using HeLa cells. […] The weight ratio of LNP/mRNA=10/1 was then chose for the following mRNA delivery studies. […] Then the intracellular delivery efficiencies of all fully substituted OCholB LNPs were tested against HeLa cells, and Lpf2k and naked GFP mRNA were used as controls (LNP/mRNA=10/1; [mRNA]=0.86 μg mL^−1; 24 h exposure). […] As to the OCholB LNPs, 75-OCholB (62.0% of GFP^+ cells), 76-OCholB (79.8%), 77-OCholB (73.5%), 78-OCholB (67.1%), 80-OCholB (55.6%), 81-OCholB (51.6%) and 304-OCholB (52.1%) are all determined to be effective. Typical fluorescent images of mRNA/LNPs (mRNA/75-OCholB, mRNA/76-OCholB and mRNA/77-OCholB) treated HeLa cells are shown in FIG. 14C. Comparing to untreated HeLa cells, strong green fluorescent signals were recoded from nanoparticles incubated cells, which is consistent with the flow cytometry data as shown in FIG. 14D. Meanwhile, both 87-OCholB (6.1%) and 90-OCholB (2.5%) are found to be inefficient for GFP mRNA delivery into HeLa cells, which is consistent with the internalization studies using NR (FIG. 12C) and (−30)GFP-Cre protein (FIG. 12F) as the fluorescent reporters.

The next experiment has as its system HeLa-DsRed cells. Description: Genome editing efficiency of (−30)GFP-Cre/OCholB LNPs (DsRed+ cells). As to conditions: for DsRed^+ cells: 8 h exposure, 24 h incubation. From the text: In this context, the internalization mechanism of the (−30)GFP-Cre/LNPs complexes was studied at first, by introducing different endocytosis inhibitors, i.e., sucrose (clathrin-mediated endocytosis inhibitor), methyl-β-cyclodextrin (M-β-CD, cholesterol-depleting agent), dynasore (dynamin II inhibitor) and nystatin (caveolin-mediated endocytosis inhibitor), following our previously reported procedures. […] Comparing to other combinatorial library studies, it is clear that even loaded with same cargoes and tested against same cell line, different lipidoids with different chemical structures could be internalized through very distinct pathways. Next, the genome-editing efficiencies of (−30)GFP-Cre/LNPs were determined by flow cytometry after 24 h of incubation (with 8 h of (−30)GFP-Cre/LNPs complex exposure). Three different concentrations of protein/lipidoid complexes (25 nM/1.7 μg mL^−1, 50 nM/3.4 μg mL^−1, and 100 nM/6.6 μg mL^−1) were tested for each lipidoid nanoparticle. […] For example, the DsRed^+ cells were recorded as 10.5%/24.9%/88.9%, 13.5%/55.4%/88.8%, and 27.7%/47.8%/94.7% for (−30)GFP-Cre loaded 75-OCholB, 76-OCholB and 77-OCholB, respectively, at the protein concentration of 25, 50 and 100 nM. […] Then, the cytotoxicity profiles of (−30)GFP-Cre/LNPs, (−30)GFP-Cre/Lpf2k and naked (−30)GFP-Cre at different concentrations against HeLa-DsRed cells (8 h of exposure; (−30)GFP-Cre/LNPs=25 nM/1.7 μg mL^−1, 50 nM/3.4 μg mL^−1, and 100 nM/6.6 μg mL^−1) are measured using MTT assay after 24 h of incubation. […] For (−30)GFP-Cre/75-OCholB treated cells, the viabilities were determined to be 95.5%, 91.8% and 83.1%, at the protein concentration of 25, 50 and 100 nM, respectively; the numbers for (−30)GFP-Cre/76-OCholB and (−30)GFP-Cre/77-OCholB are 97.8%/98.2%/97.2 and 100.9%/96.6%/98.6%. […] Meanwhile, the morphology changes of HeLa-DsRed cell treated with different nanoparticle formulations were studied and the results are shown in FIG. 15E. […] Samples found in upper left quadrant are non-toxic and inefficient for delivery; samples in lower left quadrant are toxic and inefficient; samples in lower right quadrant are efficient but toxic; samples in upper right quadrant are non-toxic and efficient, which would be top candidates for further study. It is clear that Lpf2k (shown in dotted purple circle) at high concentration is relatively efficient for genome editing, while also toxic to the target cells. On the other hand, most of the (−30)GFP-Cre loaded OCholB LNPs are almost non-toxic when compared to (−30)GFP-Cre/Lpf2k, similar to naked (−30)GFP-Cre protein. 87-OCholB, 90-OCholB and 304-OCholB (shown in dotted dark blue circle) are less efficient for genome-editing; while high genome editing efficacy and excellent tolerability were achieved by using 75-OCholB, 76-OCholB and 77-OCholB (shown in dotted green circle).

The mark [3] stands for this setting: protein/lipidoid 25 nM/1.7 μg mL^−1.
Where [4] appears, read: protein/lipidoid 50 nM/3.4 μg mL^−1.
[5] abbreviates: protein/lipidoid 100 nM/6.6 μg mL^−1.

Each structure is given as a SMILES string.

For `CCN(CC)CCN(CCC(=O)OCCSSCCNC(=O)OC1CCC2(C)C(=CCC3C2CCC2(C)C(C(C)CCCC(C)C)CCC32)C1)CCC(=O)OCCSSCCNC(=O)OC1CCC2(C)C(=CCC3C2CCC2(C)C(C(C)CCCC(C)C)CCC32)C1` (stereo not drawn) [Lipidoid 75-OCholB], the “NR^+ cells” value in the experiment on HeLa cells [1] was 85.2%. In the experiment on HeLa cells [2], the “GFP^+ cells” value turned out to be 62.0%. Besides, the “DsRed^+ cells” value was determined as 10.5% with HeLa-DsRed cells (setting [3]) and 24.9% with HeLa-DsRed cells (setting [4]).
With `CC(C)CCCC(C)C1CCC2C3CC=C4CC(OC(=O)NCCSSCCOC(=O)CCN(C)CCN(CCN(C)CCC(=O)OCCSSCCNC(=O)OC5CCC6(C)C(=CCC7C6CCC6(C)C(C(C)CCCC(C)C)CCC76)C5)CCN(C)CCC(=O)OCCSSCCNC(=O)OC5CCC6(C)C(=CCC7C6CCC6(C)C(C(C)CCCC(C)C)CCC76)C5)CCC4(C)C3CCC12C` (stereo not drawn) [Lipidoid 304-OCholB], in the experiment on HeLa cells [1], the “NR^+ cells” value was 22.8%. For the same compound, the “GFP^+ cells” value with HeLa cells [2] is 52.1%. The “genome editing efficacy (DsRed^+ cells), overall” value in the experiment with HeLa-DsRed cells ((−30)GFP-Cre 25, 50 and 100 nM) is “less efficient at delivery”.
For the compound `CC(C)CCCC(C)C1CCC2C3CC=C4CC(OC(=O)NCCSSCCOC(=O)CCN(CCC(=O)OCCSSCCNC(=O)OC5CCC6(C)C(=CCC7C6CCC6(C)C(C(C)CCCC(C)C)CCC76)C5)CCN5CCCC5)CCC4(C)C3CCC12C` (stereo not drawn) [Lipidoid 76-OCholB], the “NR^+ cells” value in the experiment on HeLa cells [1] turned out to be 65.0%. For the same compound, the “GFP^+ cells” value with HeLa cells [2] stood at 79.8%. The “DsRed^+ cells” value in the experiment on HeLa-DsRed cells (setting [3]) was 13.5%; in the experiment on HeLa-DsRed cells (setting [4]), 55.4%.
Consider `CC(C)CCCC(C)C1CCC2C3CC=C4CC(OC(=O)NCCSSCCOC(=O)CCN(CCC(=O)OCCSSCCNC(=O)OC5CCC6(C)C(=CCC7C6CCC6(C)C(C(C)CCCC(C)C)CCC76)C5)CCN(C)C)CCC4(C)C3CCC12C` (stereo not drawn) [Lipidoid 78-OCholB], for which the “NR^+ cells” value in the experiment on HeLa cells [1] amounted to 92.3%. For the same compound, in the experiment with HeLa cells [2], the “GFP^+ cells” value is 67.1%. In addition, the “DsRed^+ cells” value with HeLa-DsRed cells (setting [5]) is reported as “out-performed Lpf2k”.
The matching figures for `CC(C)CCCC(C)C1CCC2C3CC=C4CC(OC(=O)NCCSSCCOC(=O)CCN(CCCN(C)C)CCC(=O)OCCSSCCNC(=O)OC5CCC6(C)C(=CCC7C6CCC6(C)C(C(C)CCCC(C)C)CCC76)C5)CCC4(C)C3CCC12C` (stereo not drawn) [Lipidoid 80-OCholB]: 71.4%, 55.6% and “out-performed Lpf2k”.
In the case of `CC(C)CCCC(C)C1CCC2C3CC=C4CC(OC(=O)NCCSSCCOC(=O)CCN(CCC(=O)OCCSSCCNC(=O)OC5CCC6(C)C(=CCC7C6CCC6(C)C(C(C)CCCC(C)C)CCC76)C5)CCC5CCCN5C)CCC4(C)C3CCC12C` (stereo not drawn) [Lipidoid 77-OCholB], in the experiment on HeLa cells [1], the “NR^+ cells” value came out at 90.3%. Besides, in the experiment with HeLa cells [2], the “GFP^+ cells” value turned out to be 73.5%. Further, the results for the “DsRed^+ cells” value in the experiment on HeLa-DsRed cells (setting [3]) and in the experiment on HeLa-DsRed cells (setting [4]) were 27.7% and 47.8%, respectively.
Consider `CCN(CC)CCCN(CCC(=O)OCCSSCCNC(=O)OC1CCC2(C)C(=CCC3C2CCC2(C)C(C(C)CCCC(C)C)CCC32)C1)CCC(=O)OCCSSCCNC(=O)OC1CCC2(C)C(=CCC3C2CCC2(C)C(C(C)CCCC(C)C)CCC32)C1` (stereo not drawn) [Lipidoid 81-OCholB], for which the “NR^+ cells” value with HeLa cells [1] came to 27.0%. The “GFP^+ cells” value in the experiment on HeLa cells [2] turned out to be 51.6%. Moreover, the “DsRed^+ cells” value with HeLa-DsRed cells (setting [5]) was “out-performed Lpf2k”.
